Patent US9404115B2, “Coryneform bacterium transformant and process for producing phenol using the same” (priority 2010, dated 2016)
Where two headings read alike, the source gives them in different places.

How the values were obtained:
[1] = tested on: Corynebacterium glutamicum R; settings: reducing conditions (ORP −450 mV), 8% glucose, 33° C.
[2] = tested on: Pseudomonas putida S12; settings: aerobic, LB (+glucose), 30° C., OD610
Method: (§1) A growth inhibition test in aerobic culture was performed to examine the influence of phenol on Corynebacterium glutamicum, Escherichia coli, and Pseudomonas putida. Pseudomonas putida S12, which was used for the test, is reported to be a solvent-resistant strain. In the report, disclosed is an unparalleled technology using the strain as a host in phenol production.
(§2) Pseudomonas putida F1 and S12 were applied to LB agar medium (1% polypeptone, 0.5% yeast extract, 0.5% NaCl and 1.5% agar) and were left stand in the dark at 30° C. for 15 hours.
(§3) An inoculation loop of each of the Pseudomonas putida F1 and S12 grown on a plate as above was inoculated into a test tube containing 10 mL of LB (+glucose) liquid medium (1% polypeptone, 0.5% yeast extract, 0.5% NaCl and 0.4% glucose), and aerobic culture was performed with shaking at 30° C. for 13 hours.
(§4) The Pseudomonas putida F1 and S12 grown in the above conditions were each inoculated into 100 mL of LB (+glucose) liquid medium in such a way that the initial bacterial cell concentration would be OD610=0.05, phenol was added at the same time in such a way that the final concentration would be 0, 0.10, or 0.20 mM, and aerobic culture was performed with shaking at 30° C. The growth of bacterial cells was determined by absorbance measurement at OD610.

[3] = tested on: Pseudomonas putida F1; settings: aerobic, LB (+glucose), 30° C., OD610
Method: as §1, §2, §3, §4

[4] = tested on: Corynebacterium glutamicum R; settings: aerobic, A liquid medium, 33° C., OD610
Method: as §1
Corynebacterium glutamicum R was applied to A agar medium (2 g of […], 7 g of (NH4)2SO4, 0.5 g of KH2PO4, 0.5 g of K2HPO4, 0.5 g of MgSO4.7H2O, 1 mL of 0.06% (w/v) Fe2SO4.7H2O+0.042% (w/v) MnSO4.2H2O, 1 mL of 0.02% (w/v) biotin solution, 2 mL of 0.01% (w/v) thiamin solution, 2 g of yeast extract, 7 g of vitamin assay casamino acid, 40 g of glucose, and 15 g of agar were suspended in 1 L of distilled water) and was left stand in the dark at 33° C. for 15 hours.
An inoculation loop of the Corynebacterium glutamicum R grown on a plate as above was inoculated into a test tube containing 10 mL of A liquid medium (2 g of (NH2)2CO, 7 g of (NH4)2SO4, 0.5 g of KH2PO4, 0.5 g of K2HPO4, 0.5 g of MgSO4.7H2O, 1 mL of 0.06% (w/v) Fe2SO4.7H2O+0.042% (w/v) MnSO4.2H2O, 1 mL of 0.02% (w/v) biotin solution, 2 mL of 0.01% (w/v) thiamin solution, 2 g of yeast extract, 7 g of vitamin assay casamino acid, and 40 g of glucose were suspended in 1 L of distilled water) and was aerobically cultured with shaking at 33° C. for 13 hours.
as §4, with “Corynebacterium glutamicum R” for “Pseudomonas putida F1 and S12”, “was” for “were each”, “A” for “LB (+glucose)”, “0.16, 0.2, 0.24,” for “0.10,”, “0.32” for “0.20”, “33°” for “30°”

[5] = tested on: Escherichia coli JM109; settings: aerobic, LB, 37° C., OD610
Method: as §1
Escherichia coli JM109 was applied to LB agar medium (1% polypeptone, 0.5% yeast extract, 0.5% NaCl and 1.5% agar) and was left stand in the dark at 37° C. for 15 hours.
An inoculation loop of the Escherichia coli JM109 grown on a plate as above was inoculated into a test tube containing 10 mL of LB liquid medium (1% polypeptone, 0.5% yeast extract, and 0.5% NaCl), and aerobic culture was performed with shaking at 37° C. for 13 hours.
as §4, with “Escherichia coli JM109” for “Pseudomonas putida F1 and S12”, “was” for “were each”, “LB” for “LB (+glucose)”, “0.16,” for “0.10,”, “37°” for “30°”

Oc1ccccc1 [phenol]
saccharide consumption by Corynebacterium glutamicum R ([1]; 0.24% phenol): no influence of phenol was observed | saccharide consumption by Corynebacterium glutamicum R ([1]; 0.38% phenol): saccharide consumption was observed | saccharide consumption by Corynebacterium glutamicum R ([1]; 0.46% phenol): slightly observed | proliferation of Pseudomonas putida S12 ([2]; 0.10% phenol): significantly affected | proliferation of Pseudomonas putida S12 ([2]; 0.20% phenol): completely inhibited | proliferation of Pseudomonas putida F1 ([3]; 0.10% phenol): significantly affected | proliferation of Pseudomonas putida F1 ([3]; 0.20% phenol): completely inhibited | proliferation of Corynebacterium glutamicum ([4]; 0.16% phenol): hardly affected | proliferation of Corynebacterium glutamicum ([4]; 0.20% phenol): favorable growth | proliferation of Corynebacterium glutamicum ([4]; 0.24% phenol): able to proliferate | proliferation of Escherichia coli ([5]; 0.16% phenol): significantly affected | proliferation of Escherichia coli ([5]; 0.20% phenol): completely inhibited
